Test systems include NCI/ADR-RES ovarian; BT-549 breast; SF-539 CNS; RXF 393 renal; MOLT-4 leukemia; NCI-H522 lung; 786-0 renal; SR leukemia.
Assay in all cases: NCI anticancer screen, dose series, 48 h

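Growth conditions: 96-well plates. Treatment: test compound, 48 hours, 5 concentrations. Analysis: linear interpolation between bracketing concentrations; unreached endpoints set to highest concentration. GI50: concentration for 50% inhibition of growth. Definition used: TGI = concentration required for complete inhibition of growth.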 Bounds are passed on as bounds.

On to `COc1ccc(-c2c(C#N)c(N)nc(N3CCOCC3)c2C#N)cc1`, for which the GI50 in the assay with NCI/ADR-RES ovarian is 20600 nM; in the assay on BT-549 breast, 20900 nM; with SF-539 CNS, 32100 nM; in the assay with RXF 393 renal, 16900 nM; with MOLT-4 leukemia it was 27700 nM; in the assay on NCI-H522 lung it was 8650 nM. Further, the GI50 in the assay with 786-0 renal was 20700 nM. Besides, the TGI was 87.3 µM with NCI/ADR-RES ovarian; greater than 100 µM with BT-549 breast; greater than 100 µM with SF-539 CNS; 47.2 µM in the assay on RXF 393 renal; greater than 100 µM in the assay on MOLT-4 leukemia; 43.6 µM in the assay with NCI-H522 lung. Moreover, the TGI in the assay with 786-0 renal came to 76.6 µM.

Consider `CCOC(=O)c1sc(-c2ccc(OS(=O)(=O)C[C@]34CCC(CC3=O)C4(C)C)c(C=O)c2)nc1C`, for which the GI50 in the assay on BT-549 breast is 916 nM; with SF-539 CNS, 908 nM; with RXF 393 renal it was 943 nM; with MOLT-4 leukemia it was 797 nM; in the assay on NCI-H522 lung it was 1020 nM; in the assay with SR leukemia, 660 nM. The GI50 in the assay on 786-0 renal is 1390 nM. Also, the TGI in the assay with BT-549 breast turned out to be 2.48 µM; with SF-539 CNS, 1.85 µM; with RXF 393 renal, 2.75 µM; with MOLT-4 leukemia, 2.22 µM; in the assay with NCI-H522 lung, 2.89 µM; in the assay on SR leukemia, 3.27 µM. This molecule also yielded a TGI in the assay on 786-0 renal of 4.09 µM.

With `CC(/C=C/C(O)=C1/C(=O)CNC1=O)=C\[C@@H](C)[C@H]1O[C@@]2(C)O[C@H](C(=O)[C@@H]3O[C@@]32C)[C@@H]1C`, the TGI with NCI/ADR-RES ovarian came out at 63.7 µM; in the assay on BT-549 breast, 36.3 µM; in the assay with SF-539 CNS, 40 µM; in the assay with RXF 393 renal, 25.3 µM; with MOLT-4 leukemia, 72.2 µM; in the assay with 786-0 renal, 36.5 µM.

For `CC(C)(C)NCC(O)COc1c(Br)c(Br)c(Br)c2c1OC(C)(C)C2` (configuration not stated), the GI50 was 1690 nM with BT-549 breast; 1670 nM in the assay on SF-539 CNS; 2140 nM in the assay with RXF 393 renal; 1590 nM in the assay with MOLT-4 leukemia; 1990 nM with NCI-H522 lung; 1660 nM with SR leukemia. In addition, in the assay on 786-0 renal, the GI50 is 1580 nM. Also, the TGI in the assay on BT-549 breast was 3.11 µM; in the assay with SF-539 CNS it was 3.18 µM; in the assay with RXF 393 renal, 3.83 µM; in the assay on MOLT-4 leukemia, 3.16 µM; with NCI-H522 lung, 3.81 µM; with SR leukemia, 3.29 µM. In addition, the TGI in the assay on 786-0 renal amounted to 3.21 µM.

On to `Cc1cc(NCc2cc(Nc3ccnc4cc(Cl)ccc34)ccc2F)nc(N2CCOCC2)n1`, for which the GI50 was 2340 nM with NCI/ADR-RES ovarian, 2950 nM in the assay on MOLT-4 leukemia, 1840 nM with NCI-H522 lung and 1660 nM in the assay on 786-0 renal. Further, the TGI with NCI/ADR-RES ovarian is 6.97 µM; in the assay with MOLT-4 leukemia it was greater than 100 µM; in the assay on NCI-H522 lung it was 4.39 µM; in the assay with 786-0 renal it was 3.12 µM.

For the molecule `O=C(Nc1cccc2[nH]c(C(F)(F)F)nc12)c1cc(Cl)ccc1Cl`, the GI50 in the assay with NCI/ADR-RES ovarian is 2870 nM; with BT-549 breast it was 2330 nM; with SF-539 CNS, 3070 nM; in the assay on MOLT-4 leukemia it was 3000 nM; with NCI-H522 lung, 2270 nM; with SR leukemia it was 3040 nM. The GI50 in the assay with 786-0 renal is 3010 nM. In addition, the TGI in the assay with NCI/ADR-RES ovarian was determined as 8.89 µM; in the assay on BT-549 breast, 8.14 µM; in the assay with SF-539 CNS it was 15.3 µM; in the assay with MOLT-4 leukemia, 8.65 µM; with NCI-H522 lung, 6.2 µM; with SR leukemia it was 8.96 µM. The molecule also returned a TGI in the assay with 786-0 renal of 12.1 µM.

Take `CC(=O)/C=C/c1ccc(Nc2c3ccccc3nc3occ(Cl)c23)cc1`: the GI50 was 2560 nM with NCI/ADR-RES ovarian; 4900 nM with BT-549 breast; 4520 nM in the assay on SF-539 CNS; 497 nM in the assay with RXF 393 renal; 2690 nM in the assay with MOLT-4 leukemia; 3430 nM with NCI-H522 lung. Further, in the assay on 786-0 renal, the GI50 was 3170 nM. In addition, the TGI with NCI/ADR-RES ovarian is 5.88 µM; in the assay with BT-549 breast, 22.7 µM; with SF-539 CNS, 22.9 µM; with RXF 393 renal, 7.15 µM; in the assay on MOLT-4 leukemia, 13.3 µM; with NCI-H522 lung, 16.1 µM. Besides, in the assay on 786-0 renal, the TGI was 17.2 µM.

For `C=C1C(=O)O[C@H]2[C@H]1CC/C(COC(=O)NCc1ccc(Cn3c(=O)sn(CCCCC)c3=O)cc1)=C\CC[C@@]1(C)O[C@@H]21`, the GI50 in the assay with NCI/ADR-RES ovarian is 14400 nM; in the assay on BT-549 breast, 1910 nM; with SF-539 CNS, 1640 nM; in the assay with MOLT-4 leukemia, 590 nM; with NCI-H522 lung, 1590 nM; in the assay with SR leukemia, 300 nM. In addition, the GI50 in the assay with 786-0 renal was 1980 nM. The TGI in the assay on NCI/ADR-RES ovarian was determined as 46.5 µM; with BT-549 breast it was 4.62 µM; in the assay with SF-539 CNS, 3.2 µM; in the assay with MOLT-4 leukemia, 4.06 µM; in the assay on NCI-H522 lung, 3.1 µM; in the assay with SR leukemia it was 2.18 µM. The molecule further came in with a TGI with 786-0 renal of 4.23 µM.

As to `CN(C)N1C(=O)SCC(c2ccccc2)(c2ccccc2)C1=O`, the TGI in the assay with NCI/ADR-RES ovarian, in the assay with SF-539 CNS, in the assay with RXF 393 renal, in the assay with MOLT-4 leukemia, in the assay with NCI-H522 lung and in the assay with SR leukemia was greater than 100 µM throughout. In the assay with 786-0 renal, the TGI was greater than 100 µM.

As to `COc1cc(C2=NN(C(C)=O)C(c3cc(OC)c(OC)c(OC)c3)C2)ccc1O` (configuration not stated), the GI50 was 283 nM in the assay on NCI/ADR-RES ovarian; 1090 nM in the assay with BT-549 breast; 271 nM in the assay with SF-539 CNS; 381 nM in the assay on MOLT-4 leukemia; 273 nM in the assay with NCI-H522 lung; 98.5 nM in the assay on SR leukemia. For the same molecule, the GI50 with 786-0 renal was 458 nM. The TGI is greater than 100 µM in the assay with NCI/ADR-RES ovarian; greater than 100 µM in the assay on BT-549 breast; 1.54 µM in the assay on SF-539 CNS; greater than 100 µM in the assay on MOLT-4 leukemia; greater than 35.4 µM in the assay with NCI-H522 lung; greater than 100 µM in the assay on 786-0 renal.

Regarding `O=C(CC1(O)C(=O)Nc2ccc(F)cc21)c1ccc(C(=O)NCC2CCC3(CC2)OOC2(CCCCC2)OO3)cc1` (configuration not stated), the GI50 with NCI/ADR-RES ovarian is 15900 nM; with BT-549 breast it was 12600 nM; in the assay on SF-539 CNS it was 3640 nM; in the assay on RXF 393 renal, 6190 nM; in the assay with MOLT-4 leukemia, 3720 nM; in the assay with NCI-H522 lung, 1210 nM. In addition, the GI50 with 786-0 renal was 2000 nM. In addition, the TGI in the assay on NCI/ADR-RES ovarian is 48.3 µM; in the assay with BT-549 breast, 34.6 µM; in the assay on SF-539 CNS it was 14.8 µM; in the assay with RXF 393 renal it was 21.7 µM; in the assay on MOLT-4 leukemia, 28.8 µM; with NCI-H522 lung it was 2.71 µM. Further, in the assay on 786-0 renal, the TGI amounted to 3.81 µM.

The values are drawn from PubChem BioAssay (NCI).
